Patent publication US20090155270A1, “CASPASE INHIBITORS, […] 3 INHIBITORS, FOR THE TREATMENT OF INFLUENZA” (priority 2003, published 2009)
Residues, ends and D or L forms follow the SMILES beside them. *: point of attachment. Cbz = O=C(OCc1ccccc1)*; CH2F = FC*

Experiments:
caspase-3 [1] = target: caspase-3 (Homo sapiens, UniProt P42574)
[2] = test system: influenza virus ribonucleic protein complexes (RNP's); type: cell-based, influenza A virus
[3] = test system: Raf/MEK/ERK signal pathway (ERK); type: cell-based, homo sapiens
[4] = test system: influenza A virus strain fowl plague virus (FPV); type: cell-based
[5] = test system: reconstituted RNP complexes (PB2, PB1, PA, NP); type: cell-based, influenza A virus
caspase-3 [6] = target: T1, caspase-3 (Canis lupus familiaris, UniProt Q8MKI5); type: cell-based
T1 construct: endogenous in cells; host or cells: MDCK cells infected with influenza A virus FPV
T1 sequence (Q8MKI5 29-175 limits assumed): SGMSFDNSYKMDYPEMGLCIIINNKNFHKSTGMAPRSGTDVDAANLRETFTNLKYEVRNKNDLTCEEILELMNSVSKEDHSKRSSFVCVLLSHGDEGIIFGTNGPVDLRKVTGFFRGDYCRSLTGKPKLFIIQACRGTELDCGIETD
T1 sequence (Q8MKI5 176-277 limits assumed): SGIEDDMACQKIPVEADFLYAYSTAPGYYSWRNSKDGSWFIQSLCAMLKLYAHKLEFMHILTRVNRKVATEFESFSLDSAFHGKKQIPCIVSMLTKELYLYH

[7] = test system: influenza A virus strain Bratislava/79 (fowl plague virus, FPV); type: cell-based
[8] = test system: influenza A virus nucleoprotein (NP); type: cell-based
[9] = test system: early or late viral proteins (NS1, NP, M1); type: cell-based, influenza A virus
[10] = test system: influenza A virus strain fowl plague virus (FPV); type: cell-based; remark: listed apart in the source
[11] = test system: influenza A virus strain fowl plague virus (FPV); type: cell-based; remark: listed apart in the source

Molecule: N#CC(=C(/N)Sc1ccccc1N)/C(C#N)=C(\N)Sc1ccccc1N [U0126]
- cleavage of the caspase substrate PARP (caspase-3 [1]): did not lead to a modified cleavage of PARP
- migration of the RNP's out of the cell nucleus [2]: efficiently be inhibited
- virus-induced activity of ERK [3]: efficiently inhibited
- effect on the virus multiplication (titers of descendant viruses) [4]: again reduced
- prevention of staurosporine-induced bleeding of GFP and RNP complexes out of the cell nucleus [5]: not

Molecule: COC(=O)CC[C@H](NC(=O)[C@H](CC(=O)OC)NC(=O)OCc1ccccc1)C(=O)N[C@H](C(=O)N[C@@H](CC(=O)OC)C(=O)CF)C(C)C [Z-DEVD-FMK]
- caspase inhibition, measured by the cleavage of the caspase substrate PARP, versus virus titer inhibition (caspase-3 [6]): precisely correlated
- effect on virus multiplication when present in the first two hours after infection and removed thereafter [7]: no significant effects
- inhibition of virus multiplication when added 4 hours after infection [7]: continued to effectively inhibit virus multiplication
- reduction in the influenza virus titers [7]: approx. 60%
- migration of the RNP's out of the cell nucleus [2]: efficiently be inhibited
- prevention of staurosporine-induced bleeding of NP out of the cell nucleus [8]: can be prevented
- virus-induced activity of ERK [3]: substantially identical
- effect on the virus multiplication (titers of descendant viruses) [4]: did not have any effect
- effect on virus protein expression [9]: no significant effect
- prevention of staurosporine-induced bleeding of GFP and RNP complexes out of the cell nucleus [5]: can be prevented

Molecule: CC(NC(=O)[C@H](Cc1ccccc1)NC(=O)OCc1ccccc1)C(=O)CF (some centres unmarked) [Z-FA-FMK]
- effect on virus multiplication [7]: did not show any effect
- migration of the RNP's out of the cell nucleus [2]: not

Molecule: COC(=O)C[C@H](NC(=O)[C@H](C)NC(=O)[C@@H](NC(=O)OCc1ccccc1)C(C)C)C(=O)CF [Z-VAD-FMK] (Cbz-Val-Ala-Asp(OMe)-CH2F)
- inhibition of the virus multiplication [7]: same efficiency

Molecule: CCC(=C/[C@H](C)C/C=C/C(C)=C/[C@@H](C)C(=O)[C@@H](C)[C@H](O)[C@@H](C)C/C(C)=C/C(=O)O)/C=C/[C@@H]1OC(=O)C=C[C@@H]1C [leptomycin B]
- prevention of staurosporine-induced bleeding of NP out of the cell nucleus [8]: not

Molecule: CN[C@@H]1C[C@H]2O[C@@](C)([C@@H]1OC)n1c3ccccc3c3c4c(c5c6ccccc6n2c5c31)C(=O)NC4 [staurosporine]
- localization of the nucleoprotein after apoptosis induction [8]: distributed over the complete cell
- localization of GFP and RNP complexes after apoptosis induction [5]: distributed over the complete cell

B1: procaspase-3 (protein, UniProt P42574 1-277, looked up)
pro-form: MENTENSVDSKSIKNLEPKIIHGSESMDSGISLDNSYKMDYPEMGLCIIINNKNFHKSTGMTSRSGTDVDAANLRETFRNLKYEVRNKNDLTREEIVELMRDVSKEDHSKRSSFVCVLLSHGEEGIIFGTNGPVDLKKITNFFRGDRCRSLTGKPKLFIIQACRGTELDCGIETDSGVDDDMACHKIPVEADFLYAYSTAPGYYSWRNSKDGSWFIQSLCAMLKQYADKLEFMHILTRVNRKVATEFESFSFDATFHAKKQIPCIVSMLTKELYFYH
modifications: pro-form
- increase in the titers of descendant viruses [10]: 30 fold
- virus multiplication in transfected cells [11]: increased virus multiplication
